pIC50, pKi: −log10 of the molar value.

Results on nine compounds are retold here after ChEMBL document CHEMBL3817788, “Natural cholinesterase inhibitors from Myristica cinnamomea King” (Bioorg Med Chem Lett, 2016).

The target in assay [1] is Cholinesterase (Equus caballus) (UniProt P81908). Nature of the assay: Inhibition of equine serum BChE at 100 ug/ml using S-butyrylthiocholine chloride as substrate incubated for 30 mins by Ellman's microplate assay. Background: Ellman's reagent forms a yellow product with free thiols.
Sequence of Cholinesterase (Equus caballus) (P81908 whole entry): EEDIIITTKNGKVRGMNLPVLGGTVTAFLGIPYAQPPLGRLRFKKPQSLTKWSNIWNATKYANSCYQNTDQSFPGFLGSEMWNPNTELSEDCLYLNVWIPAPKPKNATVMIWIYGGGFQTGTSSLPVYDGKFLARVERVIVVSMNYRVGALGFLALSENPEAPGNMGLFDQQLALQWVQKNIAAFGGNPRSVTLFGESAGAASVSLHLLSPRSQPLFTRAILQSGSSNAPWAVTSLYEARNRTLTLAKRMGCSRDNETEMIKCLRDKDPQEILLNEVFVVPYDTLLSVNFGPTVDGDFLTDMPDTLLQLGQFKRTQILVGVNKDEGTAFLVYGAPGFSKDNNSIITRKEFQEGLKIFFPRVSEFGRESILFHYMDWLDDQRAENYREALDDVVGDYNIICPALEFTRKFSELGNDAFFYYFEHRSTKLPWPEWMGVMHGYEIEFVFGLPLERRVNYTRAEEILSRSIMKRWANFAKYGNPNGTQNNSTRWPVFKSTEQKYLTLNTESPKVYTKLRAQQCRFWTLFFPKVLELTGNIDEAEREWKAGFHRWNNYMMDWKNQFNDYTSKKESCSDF
Assay [2] relates to Acetylcholinesterase. Nature of the assay: Inhibition of AChE (unknown origin) at 100 ug/ml using acetylthiocholine iodide as substrate incubated for 30 mins by Ellman's microplate assay. Particulars: Homo sapiens.
For assay [3], the target named is T1, Cholinesterase (Equus caballus, UniProt P81908). Nature of the assay: Inhibition of equine serum BChE using S-butyrylthiocholine chloride as substrate incubated for 30 mins by Ellman's microplate assay.
T1 sequence (P81908 whole entry): as above
Assay [4] in a line: Selectivity index, ratio of IC50 for equine serum BChE to IC50 for AChE (unknown origin).
Assay [5] in a line: Selectivity index, ratio of IC50 for AChE (unknown origin) to IC50 for equine serum BChE.
Assay [6] deals with T2, Acetylcholinesterase (Homo sapiens, UniProt P22303). Nature of the assay: Inhibition of AChE (unknown origin) using acetylthiocholine iodide as substrate incubated for 30 mins by Ellman's microplate assay.
T2 sequence (P22303 whole entry): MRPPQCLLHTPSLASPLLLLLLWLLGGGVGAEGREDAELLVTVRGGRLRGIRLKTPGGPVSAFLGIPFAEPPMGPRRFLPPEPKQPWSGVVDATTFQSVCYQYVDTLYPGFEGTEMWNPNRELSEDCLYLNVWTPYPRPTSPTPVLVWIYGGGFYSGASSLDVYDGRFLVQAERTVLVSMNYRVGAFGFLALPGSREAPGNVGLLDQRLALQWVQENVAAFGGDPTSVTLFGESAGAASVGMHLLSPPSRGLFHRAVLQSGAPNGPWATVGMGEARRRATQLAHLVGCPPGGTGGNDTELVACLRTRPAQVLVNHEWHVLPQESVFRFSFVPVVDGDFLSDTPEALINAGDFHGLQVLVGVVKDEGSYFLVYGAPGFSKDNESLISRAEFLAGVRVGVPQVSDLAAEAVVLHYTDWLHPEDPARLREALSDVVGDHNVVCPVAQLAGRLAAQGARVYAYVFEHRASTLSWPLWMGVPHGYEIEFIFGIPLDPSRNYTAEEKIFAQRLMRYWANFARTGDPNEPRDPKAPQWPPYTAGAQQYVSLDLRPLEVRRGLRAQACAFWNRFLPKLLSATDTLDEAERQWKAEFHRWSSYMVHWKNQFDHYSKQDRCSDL
Assay [7] can be described thus: Inhibition of Saccharomyces cerevisiae alpha-glucosidase using p-nitrophenyl-alpha-D-glucopyranoside as substrate preincubated for 10 mins followed by substrate addition measured after 10 mins.
Assay [8] addresses T1, Cholinesterase. Nature of the assay: Mixed inhibition of equine serum BChE using S-butyrylthiocholine chloride as substrate incubated for 30 mins by Lineweaver-Burk plot analysis.
The target in assay [9] is T2, Acetylcholinesterase. Nature of the assay: Mixed inhibition of AChE (unknown origin) using acetylthiocholine iodide as substrate incubated for 30 mins by Lineweaver-Burk plot analysis.

What is called inhibition is the drop in the measured response relative to a control, in per cent. As for `O=C(O)CCCCCCCCc1ccc(O)cc1`, the inhibition worked out at 49% in [1] and 45.1% in the assay with Acetylcholinesterase [2].

The pIC50 is the negative decadic logarithm of the IC50, by convention in mol/L. Lower therefore signals a large IC50. For `O=C(CCCCCCCCc1ccc(O)c(O)c1)c1c(O)ccc(C(CCCCCCCCc2ccc(O)cc2)c2c(O)cccc2O)c1O` (centres undefined), the pIC50 was 4.90 against Cholinesterase [3] and 4.51 against Acetylcholinesterase [6]. Further, the inhibition in [1] stood at 86.7%; with Acetylcholinesterase [2], 91.5%. In addition, the Ratio IC50 in [4] was found to be 0.41; in assay [5], 2.45.

In turn, `O=C(CCCCCCCCc1cc(O)c(O)cc1-c1ccc(O)c(C(=O)CCCCCCCCc2ccccc2)c1O)c1c(O)cccc1O` gave a pIC50 in [7] of 5.30.

Turning to `O=C(CCCCCCCCc1ccc(O)cc1)c1c(O)cc(O)cc1O`, the negative logarithm of the IC50 (pIC50) was 5.18 against Cholinesterase [3] and 5.19 on Acetylcholinesterase [6]. Besides, the inhibition in assay [1] stood at 86.8%; in the assay on Acetylcholinesterase [2], 99.4%. Further, the results for the Ratio IC50 in [4] and in assay [5] were 1.03 and 0.97, respectively.

Take `O=C(CCCCCCCCc1ccc(O)c(O)c1)c1c(O)ccc(C(CCCCCCCCc2ccc(O)c(O)c2)c2c(O)cccc2O)c1O` (centres undefined): the pIC50 against Cholinesterase [3] was 4.98; at Acetylcholinesterase [6] it was 4.90. In addition, the inhibition was 81.1% in assay [1] and 75.4% in the assay on Acetylcholinesterase [2]. For the same compound, the Ratio IC50 in [4] is 0.83; in assay [5] it was 1.2.

With `O=C1CC(CCCCCCc2ccc(O)cc2)Oc2cccc(O)c21` (centres undefined), in assay [7], the pIC50 is 3.45.

In the case of `O=C(CCCCCCCCc1ccccc1)c1c(O)cccc1O` [MALABARICONE A], the pIC50 against Cholinesterase [3] is 4.41; against Acetylcholinesterase [6], 5.88. Besides, the inhibition in [1] turned out to be 69.5%; in the assay on Acetylcholinesterase [2] it was 97.4%. The Ratio IC50 in assay [4] amounted to 33; in [5] it was 0.04.

As usually defined, the pKi is the negative decadic logarithm of the Ki, by convention in mol/L. High values mean a small Ki, low ones a large Ki. Consider `O=C(CCCCCCCCc1ccc(O)cc1)c1c(O)cccc1O` [MALABARICONE B], for which the values for the pKi at Cholinesterase [8] and on Acetylcholinesterase [9] were 6.25 and 5.36, respectively. The results for the pIC50 at Cholinesterase [3] and on Acetylcholinesterase [6] were 5.75 and 5.74, respectively. In addition, the values for the inhibition (in assay [1]; in the assay with Acetylcholinesterase [2]) were 87.3% and 95.9%, respectively. For the same compound, the Ratio IC50 in [4] is 0.96; in assay [5] it was 1.05.

In the case of `O=C(CCCCCCCCc1ccc(O)c(O)c1)c1c(O)cccc1O` [MALABARICONE C], the pKi at Cholinesterase [8] was 4.94; on Acetylcholinesterase [9], 5.23. The pIC50 against Cholinesterase [3] was 5.55; on Acetylcholinesterase [6], 5.71. The figures for the inhibition (in assay [1]; with Acetylcholinesterase [2]) were 94.1% and 97.1%, respectively. Moreover, the Ratio IC50 in assay [4] is 1.44; in [5], 0.69.
